Source: patent US20060094721A9, “Sulfonamides as potassium channel blockers” (Icagen, Inc., priority 2002, published 2006)

Each molecule was assayed against T1, intermediate conductance, calcium activated potassium channel (Gardos channel) in red blood cells (Homo sapiens, UniProt O15554) (assay: 86Rb flux assay for inhibition of the Gardos channel in red blood cells (Example 4)). Conditions: CaCl2 and A23187.
T1 construct: endogenous in cells; host or cells: red blood cells from heparinized whole blood
Format: cell-based
Experimental: Activities for selected compounds of the invention were determined using the assay set forth in Example 4, and are presented in Table 1.
Example 4 illustrates the use of a rubidium flux assay to determine the activity of the compounds of the invention.
Example 4 describes a bioassay for measuring the inhibition of a calcium activated potassium channel, the Gardos channel, in red blood cells by the compounds of the invention.
Heparinized whole blood was washed three times with Modified Flux Buffer (MFB: 140 mM NaCl; 5 mM KCl; 10 mM Tris; 0.1 mM EGTA; pH=7.4). Red blood cells (“RBCs”) at an approximate 10% hematocrit. Washed cells were then incubated for 3 hours with ^86Rb (5 μCi/mL). After this incubation period, the RBCs were washed three times with cold MFB. Washed ^86Rb loaded RBCs were then incubated with a test compound of the invention for 10 minutes. ^86Rb flux was then initiated by the addition of 10 μL/mL of a MFB solution containing 10 mM CaCl2 and 100 μM A23187, a calcium ionophore. This yielded a final concentration of 100 μM CaCl2 and […] A23187 n the incubation medium. Cells were incubated for 10 minutes, spun down and the supernatant was removed. Samples were counted in a Wallace Microbeta liquid scintillation counter by Cerenkov emission. Total RBC ^86Rb content was determined by lysing the RBCs with water and then precipitating protein using a 50:50 mixture of ethanol:chloroform. After a 20 minute microfuge spin, the aqueous and organic layers separated and the aqueous layer was removed and counted. Efflux is expressed as a percentage of the initial cell content of ^86Rb.
`COC(=O)C1=C(NS(=O)(=O)c2cccc(C(F)(F)F)c2)CCCC1` [Compound 31, 2-(3-trifluoromethyl-benzenesulfonylamino)-cyclohex-1-enecarboxylic Acid Methyl Ester] was tested, and the “Activity (relative potencies in the intermediate conductance, calcium activated potassium channel blocker assay, IC50 class)” value was “++ (++ represents 2 μM < IC50 < 0.5 μM)”.
For `O=S(=O)(Nc1ccccc1-c1ncco1)c1cccc(C(F)(F)F)c1` [Compound 74, N-(2-Oxazol-2-yl-phenyl)-3-trifluoromethyl-benzenesulfonamide], the “Activity (relative potencies in the intermediate conductance, calcium activated potassium channel blocker assay, IC50 class)” value was “++ (++ represents 2 μM < IC50 < 0.5 μM)”.
In the case of `Cc1noc(-c2ccccc2NS(=O)(=O)c2cccc(C(F)(F)F)c2)n1` [Compound 82, N-[2-(3-methyl-[1,2,4]oxadiazol-5-yl)-phenyl]-3-trifluoromethyl-benzenesulfonamide], the “Activity (relative potencies in the intermediate conductance, calcium activated potassium channel blocker assay, IC50 class)” value is reported as “++ (++ represents 2 μM < IC50 < 0.5 μM)”.
With `COc1noc(-c2ccccc2NS(=O)(=O)c2cccc(C(F)(F)F)c2)n1` [Compound 83, N-[2-(3-methoxy-[1,2,4]oxadiazol-5-yl)-phenyl]-3-trifluoromethyl-benzenesulfonamide] the “Activity (relative potencies in the intermediate conductance, calcium activated potassium channel blocker assay, IC50 class)” value was “++ (++ represents 2 μM < IC50 < 0.5 μM)”.
With `COC(=O)c1ccccc1CS(=O)(=O)c1cccc(C(F)(F)F)c1` [Compound 95, 2-(3-Trifluoromethyl-benzenesulfonylmethyl)-benzoic Acid Methyl Ester] the “Activity (relative potencies in the intermediate conductance, calcium activated potassium channel blocker assay, IC50 class)” value was “++ (++ represents 2 μM < IC50 < 0.5 μM)”.
`COC(=O)c1ccccc1CSc1cccc(C(F)(F)F)c1` [Compound 96, 2-(3-Trifluoromethyl-phenylsulfanylmethyl)-benzoic Acid Methyl Ester] was tested, and the “Activity (relative potencies in the intermediate conductance, calcium activated potassium channel blocker assay, IC50 class)” value was “+ (+ Represents 10 μM < IC50 < 2 μM)”.

Same assay, conditions: CaCl2 and A23187, read-out: Activity (relative potencies in the intermediate conductance, calcium activated potassium channel blocker assay, IC50 class)
Molecule `COc1ccc(NS(=O)(=O)c2cccc(C(F)(F)F)c2)c(-c2ncco2)c1` [Compound 40, N-(4-Methoxy-2-oxazol-2-yl-phenyl)-3-trifluoromethyl-benzenesulfonamide] has an IC50 of under 500 nM.
With `COc1cc(NS(=O)(=O)c2cccc(C(F)(F)F)c2)c(-c2nc(C)no2)cc1OC` [Compound 41, N-[4,5-dimethoxy-2-(3-methyl-[1,2,4]oxadiazol-5-yl)-phenyl]-3-trifluoromethyl-benzenesulfonamide] the IC50 was under 500 nM.
`O=S(=O)(Nc1ccccc1-c1ccco1)c1cccc(C(F)(F)F)c1` [Compound 76, N-(2-furan-2-yl-phenyl)-3-trifluoromethyl-benzenesulfonamide] was tested, and the IC50 was under 500 nM.
